Laboratory results from patent US11275086B2 (priority 2010, dated 2022).
Where two headings read alike, the source gives them in different places.

Tested on: MTB specific T CD4+ lymphocytes
Assay type: cell-based, human
Settings: for positive tests / evaluable subjects: Microbiologically checked TB patients (before therapy start) / positive tests / evaluable subjects: Recently MTB exposed subjects: anergic subjects excluded

Row | Substance | positive tests / evaluable subjects: BCG-vaccinated controls (BCG-vaccinated controls) | positive tests / evaluable subjects: Microbiologically checked TB patients (before therapy start) | positive tests / evaluable subjects: Recently MTB exposed subjects | positive tests / evaluable subjects: Sanitary workers | positive tests / evaluable subjects: BCG-vaccinated controls | sensitivity compared with ESAT-6 derived control peptide (result in words)
1 | AVIVRSELLTQYL (listed as Mycobacterium tuberculosis) [Peptide #2, peptide of Rv1251c] | 0/15 | 11/55 | 8/61 | 1/21 | – | –
2 | GEIIFISGRLNGaa (GEIIFISGRLNGAA; listed as Mycobacterium tuberculosis) [Peptide #5, peptide of Rv0724A] | 0/15 | 18/55 | 11/61 | 5/21 | – | –
3 | TAWITAVVPGLMV (listed as Mycobacterium tuberculosis) [Peptide #1, peptide of Rv1478 (Consensus VIR)] | – | 12/55 | 14/61 | 6/21 | 0/15 | –
4 | RPVRRVLLFVVPSSGPAP (listed as Mycobacterium tuberculosis) [Peptide #4, peptide of Rv3479] | – | 10/55 | 13/61 | 6/21 | 0/15 | –
5 | GSVRQLPSVLKPPLITLRTLTLSG (listed as Mycobacterium tuberculosis) [Peptide #3, peptide of Rv3479] | – | 27/55 | 20/61 | 7/21 | 0/15 | elevated sensitivity comparable, if not more elevated, to multiepitope ESAT-6 protein derived control peptide
6 | ELMARAAVLGSAH (listed as Mycobacterium tuberculosis) [Peptide #6, peptide of Rv1251c] | 0/15 | 14/55 | 6/61 | 3/21 | – | –
